According to paper PMC7126465 (Bioorganic & Medicinal Chemistry, 2017):
Read-outs that look alike come from different tables or passages of the source.

How the values were obtained:
[1] = system: human embryonic lung (HEL) cells; experiment: Cytotoxicity, alteration of cell morphology; assay type: cell-based; details: microscopically detectable alteration of cell morphology
HCMV = experiment: microbe, parasite or virus in culture; assay type: cell-based, human cytomegalovirus; details: for EC50: read-out: EC50 range against HCMV
HSV = experiment: organism not typed; assay type: cell-based, herpes simplex virus; details: for EC50: HEL, read-out: EC50 range against HSV
VZV = experiment: microbe, parasite or virus in culture; assay type: cell-based, varicella-zoster virus; details: for EC50: Human alphaherpesvirus 3, HEL, read-out: EC50 range against VZV
HSV-1 TK− KOS ACVr = experiment: Antiviral CPE inhibition, TK- HSV-1 KOS ACVr in HEL cells; assay type: cell-based, herpes simplex virus type 1; details: read-out: EC50 (HEL) HSV-1 TK− KOS ACVr
Vaccinia virus = experiment: microbe, parasite or virus in culture; assay type: cell-based, vaccinia virus Lederle strain; details: for EC50: read-out: EC50 (HEL) Vaccinia virus
HSV-2 (G) = experiment: Antiviral CPE inhibition, HSV-2; assay type: cell-based, herpes simplex virus type 2; details: read-out: EC50 (HEL) HSV-2 (G); HEL cells
HCMV (AD-169) = experiment: Antiviral assay, HCMV; assay type: cell-based, human cytomegalovirus; details: read-out: EC50 (HEL) HCMV (AD-169); HEL cells
VZV TK+ (Oka) = assay type: cell-based, varicella-zoster virus; details: read-out: EC50 (HEL) VZV TK+ (Oka); HEL cells
VZV TK− (07-1) = assay type: cell-based, varicella-zoster virus; details: read-out: EC50 (HEL) VZV TK− (07-1)
HCMV (Davis) = experiment: Antiviral assay, HCMV; assay type: cell-based, human cytomegalovirus; details: read-out: EC50 (HEL) HCMV (Davis); HEL cells
[2] = system: human embryonic lung (HEL) cells; experiment: Cytostatic activity, inhibition of HEL cell growth; assay type: cell-based
[3] = system: herpesviruses (HSV, VZV, HCMV); experiment: Anti-herpesvirus activity overall; assay type: cell-based; details: for Anti-herpesvirus activity (in words): HEL cells

Compound: CCCCCCCCCCCCCCCCCCOCCOP(=O)(O)COCCn1cnc(N)nc1=O [Compound 17, Octadecyloxyethyl ester of 1-[2-(phosphonomethoxy)ethyl]-5-azacytosine]
- Cytotoxicity MCC (minimum cytotoxic concentration) [1]: 100 ± 0 µM
- EC50 (HCMV; Human betaherpesvirus 5, HEL): 0.24 to 1.12 µM
- Selectivity index (SI, ratio CC50/EC50) HCMV (HCMV; range over HCMV strains): 71–330
- EC50 (HSV): 0.15 to 0.35 µM
- Selectivity index (SI, ratio CC50/EC50) HSV (HSV; range over HSV strains): 226–528
- EC50 (VZV): 0.32 to 0.8 µM
- Selectivity index (SI, ratio CC50/EC50) VZV (VZV; range over VZV strains): 100–248

Compound: Bis[(isopropoxycarbonyl)oxymethyl] ester of 2,4-diamino-6-[2-(phosphonomethoxy)ethoxy]pyrimidine [Compound 4]
- Cytotoxicity MCC (minimum cytotoxic concentration) [1]: >202 µM
- EC50 (HSV-1 TK− KOS ACVr): 3.7 ± 3 µM
- Selectivity index (SI, ratio CC50/EC50) HCMV (HCMV; range over HCMV strains): ≤ 1
- EC50 (HCMV; range over HCMV strains, HEL cells): 86 to 90 µM
- Fold more active than parental drug PMEO-DAPy (HSV) (HSV): 6–20 fold
- Selectivity index (SI, ratio CC50/EC50) HSV (HSV; range over HSV strains): 4–15
- Anti-vaccinia virus activity (in words) (Vaccinia virus): very low anti-vaccinia virus activity without selectivity
- EC50 (Vaccinia virus): 160 ± 60 µM
- Fold more active than parental drug PMEO-DAPy (VZV) (VZV): 3–16 fold
- Selectivity index (SI, ratio CC50/EC50) VZV (VZV; range over VZV strains): 15–52
- EC50 (HSV-2 (G)): 1.01 ± 0.86 µM
- EC50 (HCMV (AD-169)): 90.1 µM
- EC50 (VZV TK+ (Oka)): 0.32 ± 0.37 µM
- EC50 (VZV TK− (07-1)): 0.29 ± 0.19 µM
- EC50 (HCMV (Davis)): 86.3 ± 5.4 µM

Compound: CC(C)(C)C(=O)OCOP(=O)(COCCOc1cc(N)nc(N)n1)OCOC(=O)C(C)(C)C [Compound 2, Bis(pivaloyloxymethyl) ester of 2,4-diamino-6-[2-(phosphonomethoxy)ethoxy]pyrimidine]
- Cytotoxicity MCC (minimum cytotoxic concentration) [1]: ≥100 µM
- Fold more cytostatic than PMEO-DAPy [2]: 5.5 fold
- EC50 (Vaccinia virus; Orthopoxvirus vaccinia, HEL): ≥ 20 µM
- Fold more active than PMEO-DAPy (anti-herpesvirus activity) [3]: 2 to 4.5 fold

Compound: CCCCCCCCCCCCCCCCCCOCCNc1ncn(CCOCP(=O)(OCCOCCCCCCCCCCCCCCCCCC)OCCOCCCCCCCCCCCCCCCCCC)c(=O)n1 [Compound 16, Bis(octadecyloxyethyl) ester of N^4-octadecyloxyethyl-1-[2-(phosphonomethoxy)ethyl]-5-azacytosine]
- Cytotoxicity MCC (minimum cytotoxic concentration) [1]: 100 µM
- Anti-herpesvirus activity (in words) [3]: deprived of anti-herpesvirus properties

Compound: CC(C)(C)C(=O)OCOP(=O)(COCCn1cnc(N)nc1=O)OCOC(=O)C(C)(C)C [Compound 9, Bis(pivaloyloxymethyl) ester of 1-[2-(phosphonomethoxy)ethyl]-5-azacytosine]
- Cytotoxicity MCC (minimum cytotoxic concentration) [1]: 209 µM
- EC50 (HCMV; Human betaherpesvirus 5, HEL): 1 to 3 µM
- Selectivity index (SI, ratio CC50/EC50) HCMV (HCMV; range over HCMV strains): 14–47
- EC50 (HSV): 0.7 to 1.3 µM
- Selectivity index (SI, ratio CC50/EC50) HSV (HSV; range over HSV strains): 37–63
- EC50 (VZV): 0.7 to 1.3 µM
- Selectivity index (SI, ratio CC50/EC50) VZV (VZV; range over VZV strains): 35–71

Compound: CCCCCCCCCCCCCCCCCCOCCOP(=O)(COCCn1cnc(N)nc1=O)OCCOCCCCCCCCCCCCCCCCCC [Compound 15, Bis(octadecyloxyethyl) ester of 1-[2-(phosphonomethoxy)ethyl]-5-azacytosine]
- Cytotoxicity MCC (minimum cytotoxic concentration) [1]: 20 µM
- Anti-herpesvirus activity (in words) [3]: deprived of anti-herpesvirus properties

Compound: Nc1cc(OCCOCP(=O)(O)O)nc(N)n1 [Compound 1, 2,4-diamino-6-[2-(phosphonomethoxy)ethoxy]pyrimidine]
- Cytotoxicity MCC (minimum cytotoxic concentration) [1]: >100 µM
- Selectivity index (SI, ratio CC50/EC50) HSV (HSV; range over HSV strains): 1.7–4.5
- Selectivity index (SI, ratio CC50/EC50) VZV (VZV; range over VZV strains): 19–44

Compound: COP(=O)(O)COCCn1cnc(N)nc1=O [Compound 14, Methyl ester of [2-(phosphonomethoxy)ethyl]-5-azacytosine]
- Cytotoxicity MCC (minimum cytotoxic concentration) [1]: >100 µM
- Anti-herpesvirus activity (in words) [3]: lacked activity against herpesviruses

Compound: CC(C)OC(=O)OCOP(=O)(O)COCCn1cnc(N)nc1=O [Compound 8, (Isopropoxycarbonyl)oxymethyl ester of 1-[2-(phosphonomethoxy)ethyl]-5-azacytosine]
- Cytotoxicity MCC (minimum cytotoxic concentration) [1]: >100 µM
- Anti-herpesvirus activity (in words) [3]: minimal or no anti-herpesvirus activities

Compound: Nc1nc2c(ncn2COCCO)c(=O)[nH]1 [Acyclovir, reference compound]
- Cytotoxicity MCC (minimum cytotoxic concentration) [1]: >440 µM

Compound: CC(C)OC(=O)OCOP(=O)(COCCn1cnc(N)nc1=O)OCOC(=O)OC(C)C [Compound 7, Bis[(isopropoxycarbonyl)oxymethyl] ester of 1-[2-(phosphonomethoxy)ethyl]-5-azacytosine]
- Cytotoxicity MCC (minimum cytotoxic concentration) [1]: >100 µM

Compound: CC(C)(C)C(=O)OCOP(=O)([O-])COCCOc1cc(N)nc(N)n1.[Na+] [Compound 3, Pivaloyloxymethyl ester of 2,4-diamino-6-[2-(phosphonomethoxy)ethoxy]-pyrimidine]
- Cytotoxicity MCC (minimum cytotoxic concentration) [1]: >100 µM
- Anti-herpesvirus activity (in words) [3]: potency and selectivity virtually identical to PMEO-DAPy

Compound: CCOC(=O)[C@H](Cc1ccccc1)NP(=O)(COCCn1cnc(N)nc1=O)N[C@@H](Cc1ccccc1)C(=O)OCC [Compound 12, Bis(L-phenylalanineethyl ester) prodrug of 1-[2-(phosphonomethoxy)ethyl]-5-azacytosine]
- Cytotoxicity MCC (minimum cytotoxic concentration) [1]: >100 µM
- EC50 (HCMV; Human betaherpesvirus 5, HEL): 7.5 to 15.5 µM
- EC50 (HSV): 32 to 42 µM
- EC50 (VZV): 27 to 29 µM

Compound: Nc1nc(O)c2ncn(COC(CO)CO)c2n1 [Ganciclovir, reference compound]
- Cytotoxicity MCC (minimum cytotoxic concentration) [1]: >350 µM

Compound: O=c1[nH]c(=O)n([C@H]2C[C@H](O)[C@@H](CO)O2)cc1/C=C/Br [Brivudin, reference compound]
- Cytotoxicity MCC (minimum cytotoxic concentration) [1]: 300 µM

Compound: CCOC(=O)[C@H](Cc1ccccc1)NP(=O)(O)COCCn1cnc(N)nc1=O [Compound 13, (L-Phenylalanine ethyl ester) prodrug of 1-[2-(phosphonomethoxy)ethyl]-5-azacytosine]
- Cytotoxicity MCC (minimum cytotoxic concentration) [1]: >100 µM
- Anti-herpesvirus activity (in words) [3]: lacked activity against herpesviruses

Compound: CCCCCCCCCCCCCCCCNC(=O)[C@@H](N)Cc1ccc(OP(=O)(COCCn2cnc(N)nc2=O)Oc2ccc(C[C@H](N)C(=O)NCCCCCCCCCCCCCCCC)cc2)cc1 [Compound 23, Bis(Hexadecylamido-L-tyrosyl) ester of 1-[2-(phosphonomethoxy)ethyl]-5-azacytosine]
- Cytotoxicity MCC (minimum cytotoxic concentration) [1]: 60 ± 57 µM
- Selectivity index (SI, ratio CC50/EC50) HCMV (HCMV): 13–56
- Selectivity index (SI, ratio CC50/EC50) HSV (HSV): 45–68
- Selectivity index (SI, ratio CC50/EC50) VZV (VZV): 47–93

Compound: CCOC(=O)[C@H](C)NP(=O)(COCCOc1cc(N)nc(N)n1)N[C@@H](C)C(=O)OCC [Compound 5, Bis(L-alanineethyl ester) prodrug of 2,4-diamino-6-[2-(phosphonomethoxy)ethoxy]pyrimidine]
- Cytotoxicity MCC (minimum cytotoxic concentration) [1]: 217 µM
- EC50 (HCMV; Human betaherpesvirus 5, HEL): 17 to 29 µM
- Selectivity index (SI, ratio CC50/EC50) HCMV (HCMV; range over HCMV strains): ≤ 1
- Fold more active than parental drug PMEO-DAPy (HSV) (HSV): 6–20 fold
- Selectivity index (SI, ratio CC50/EC50) HSV (HSV; range over HSV strains): 4–15
- Anti-vaccinia virus activity (in words) (Vaccinia virus): very low anti-vaccinia virus activity without selectivity
- Fold more active than parental drug PMEO-DAPy (VZV) (VZV): 3–16 fold
- Selectivity index (SI, ratio CC50/EC50) VZV (VZV; range over VZV strains): 15–52

Compound: Nc1ccn(C[C@@H](CO)OCP(=O)(O)O)c(=O)n1.O.O [Cidofovir, reference compound]
- Cytotoxicity MCC (minimum cytotoxic concentration) [1]: ≥300 µM

Compound: CC(C)(C)C(=O)OCOP(=O)([O-])COCCn1cnc(N)nc1=O.[Na+] [Compound 10, Pivaloyloxymethyl ester of 1-[2-(phosphonomethoxy)ethyl]-5-azacytosine, sodium salt]
- Cytotoxicity MCC (minimum cytotoxic concentration) [1]: >275 µM
- Anti-herpesvirus activity (in words) [3]: minimal or no anti-herpesvirus activities
